Patent publication US11191774B2, “Drug formulations for cancer treatment” (The Regents of the University of California, priority 2015, dated 2021)
“And” between values parts separate entries of the source, which are not always exact repeats. Identical values can stand only once. Blank lines part the entries; values can stand above or below the compound they belong to.

How the values were obtained:
[1] = Drug encapsulation in liposomes (absorbance after dissolution); assay type: physicochemical; details: for Drug Incorporation: liposomes 80:10:10 DSPC:DOTAP:Chol containing the 5FU analogue; for enhancement of liposomal drug encapsulation relative to 5FU: cationic liposomes
Experimental: The dissolved liposomes were centrifuged at 12000 g for 20 minutes to allow the lipids to pellet. […] Drug encapsulation is reported as the mol % of drug with respect to lipids±SD. Liposome sizes and ζ potentials were determined utilizing dynamic light scattering and electrophoretic light scattering, respectively, on a Malvern ZSizer Nano ZS. Samples were diluted 100× in distilled de-ionized water immediately prior analysis, and each measurement is reported as an average of 3 independent sets of at least 13 runs each ±SD. Drug encapsulation was evaluated for each drug, and the encapsulation methods reported here provided the highest yield for each respective drug. […] To remove free drug, liposomes were finally passed through a Sephadex G-25 PD-10 column.

[2] = Liposome size and zeta potential (dynamic/electrophoretic light scattering); assay type: physicochemical; details: liposomes 80:10:10 DSPC:DOTAP:Chol containing the 5FU analogue
Experimental: To measure drug encapsulation, 50 μL of drug-loaded liposomes were dissolved in 950 μL methanol through vortexing and sonication. The dissolved liposomes were centrifuged at 12000 g for 20 minutes to allow the lipids to pellet. The supernatant was collected, diluted serially, and their absorbances were measured at 480 nm, 266 nm, 264 nm, 268 nm, 268 nm, and 394 nm to quantify DOX, 5FU, 5FUG, 5FUW, 5FUR, and 5FURW concentrations, respectively. Drug encapsulation is reported as the mol % of drug with respect to lipids±SD. Liposome sizes and ζ potentials were determined utilizing dynamic light scattering and electrophoretic light scattering, respectively, on a Malvern ZSizer Nano ZS. Samples were diluted 100× in distilled de-ionized water immediately prior analysis, and each measurement is reported as an average of 3 independent sets of at least 13 runs each ±SD.

[3] = literature (Haran et al.); cited from earlier work
BT-474 cells = assay: Liposomal cancer cell growth inhibition, calcein-AM viability assay; assay type: cell-based, human
Experimental: (§1) In vitro anticancer efficacy of drug-loaded liposomes was determined via calcein-AM cell viability assay. BT-474 cells or 4T1 cells were seeded in a 96-well cell culture plate at a density of 11,000 cells per well or 1,000 cells per well in a total volume of 100 μL media and allowed to adhere overnight. Media was then replaced with fresh media containing liposomes and incubated for 72 hours or 48 hours for BT-474 or 4T1 cells, respectively. The discrepancies of cell seeding densities and drug incubation times between BT-474 cells and 4T1 cells is due to the much lower doubling time of 4T1 cells compared to BT-474. Parameters were modified such that untreated cells reached 70% confluency after treatment. After incubation with liposomes, media was aspirated and replaced with 1 μM calcein-AM in PBS for 30 minutes at room temperature. Fluorescence intensity of intracellularly hydrolyzed calcein-AM was measured using excitation and emission wavelengths of 490 nm and 520 nm. Fractional cell inhibition was calculated by subtracting fluorescence of live cells in experimental wells from those of untreated cells and normalizing against untreated cells. D50 concentrations were determined by fitting experimental data to the median-effect model (Chou and Talalay, Advances in Enzyme Regulation 1984, 22, 27-55), and their error is reported as the standard error of the model fit.

[4] = tested on: MCF 10A human breast epithelial cells; assay: MTT toxicity against healthy epithelial cells; assay type: cell-based; details: synergistic ratio R=819 vs single drug
Experimental: (§2) For cell viability studies, BT-474 cells were seeded at a density of 10,000 cells per well in 100 μL cell culture medium, grown overnight and incubated with drug solutions for 72 hours. Cell viability was assessed post drug-incubation via 3-(4,5-Dimethylthiazol-2-yl)-2,5-diphenyltetrazolium bromide (MTT; Invitrogen Life Technologies) assays. Individual drug concentrations which inhibit 50% cell growth (D50) were first determined by fitting dose-effect data to the median-effect model (Chou and Talalay, Advances in Enzyme Regulation 1984, 22, 27-55). For combinatorial studies, 5FU and DOX were simultaneously incubated with BT-474 cells at ratios of differing multiples of their D50 concentrations, and cell viability was subsequently assessed. CI values were further calculated, as previously described (Chou, Pharmacological Reviews 2006, 58(3): p. 621-621), with the designations of CI<1, CI=1, and C>1 respectively representing synergy, additivity, and antagonism. The same methodology was applied to assess interactions between all other chemotherapy combinations presented.
These cell types were chosen because any systemically-administered drug is susceptible to interactions and uptake by endothelial cells, as well as epithelial cells in surrounding healthy tissue.

[5] = tested on: ROS generation in BT-474 cells; assay: Reactive oxygen species generation, carboxy-H2DCFDA confocal microscopy; assay type: cell-based, human; details: 72 hours incubation
Experimental: To visualize and assess the production of reactive oxygen species (ROS), cells were seeded in an 8-well chambered borosilicate coverglass (Nunc Lab-Tek) at a density of 85,000 cells per well in 300 μL medium and grown overnight prior to incubation with drug solutions in fresh medium. After incubation of BT-474 cells with either 5FU and DOX at a molar ratio of 819:1, 5FU alone, or DOX alone for 72 hours, cells were washed three times in PBS and exposed to 10 μM carboxy-H2DCFDA (Invitrogen Life Technologies) in phosphate buffered saline (PBS; Theimo Scientific) for 30 minutes at 37° C. and 5% CO2. Upon acetate cleavage and oxidation, carboxy-H2DCFDA formed carboxydichlorofluorescein and acted as an ROS indicator. Cells were washed thrice more in PBS, finally suspended in cell culture medium, and immediately imaged live using an Olympus Fluoview 1000 spectral confocal microscope. Carboxydichlorofluorescein and DOX were both excited utilizing a 488 nm 10 mW Argon gas laser and visualized with 492-560 nm and 574-674 nm optical filters, respectively. Images were captured as 10 μm z-stacks, and each z-stack was averaged into a single image using ImageJ 1.47 h software (NIH). Fluorescence intensity is reported as the raw integrated density divided by number of cells, determined by DOX fluorescence which coincided with cell nuclei.

[6] = tested on: BT-474 human breast cancer cells; assay: Combination Index (CI) study of free drugs, MTT cell viability; assay type: cell-based
Experimental: as §2

[7] = tested on: MDA-MB-231 breast cancer cell line; assay: 5FURW cell viability studies (Example 4); assay type: cell-based, human; details: for IC50: Homo sapiens
Experimental: (§3) Two breast cancer cell lines (of mouse and human, 4T1 and MDA-MB-231) were tested with the synthesized 5FURW, compared with 5FU and also with encapsulated drug in liposomes functionalized with amino and carboxyl groups (Table 4, FIG. 13).

[8] = tested on: 4T1 breast cancer cell line; assay: 5FURW cell viability studies (Example 4); assay type: cell-based, mouse; details: for IC50: Mus musculus
Experimental: as §3

[9] = tested on: 4T1 murine breast cancer cells; assay: Liposomal cancer cell growth inhibition, calcein-AM viability assay; assay type: cell-based, mouse; details: 4T1, W concentrations expected during 5FURW cytotoxicity assays, free or liposome-encapsulated
Experimental: as §1

[10] = Encapsulation efficiency and loading capacity of drug-loaded liposomes (Example 4); assay type: physicochemical; details: 5FURW in PEGylated liposomes, 2 h encapsulation
Experimental: Liposomes were prepared with a mixture of DSPC:DSPE-PEG(2000)Amine or DSPE-PEG(2000)Carboxyl:Cholesterol:DOTAP with the ratio 75:5:10:10 via the thin lipid film formation. After the formation of the lipids and passing them through an extruder to obtain monodisperse 100 nm liposomes, the external solvent was changed using a size exclusion column and the drug encapsulated during two hours. Briefly, the thin lipid films were hydrated with 250 mM (NH4)SO4 to form liposomes containing either amine-terminated PEG or carboxy-terminated PEG. 1 mL of liposomes and 200 μL of 73 mM 5FURW were used for the encapsulation of 5FURW into the liposomes. […]
The encapsulation efficiency and loading capacity were calculated as follows: […]
The liposomes were characterized using (i) the Steward assay to determine lipid concentration, (ii) absorbance at 270 nm to evaluate 5FURW concentration, and (iii) dynamic light scattering measurements to evaluate size and surface potential. […]
The DAFODIL fabrication procedure was performed as follows. […] Characterization consisted of absorbance measurements at 270 nm and 480 nm to determine the concentration of 5FURW and DOX, respectively, dynamic light scattering measurements to measure liposome size and surface potential, and Stewart assay to quantify the concentration of lipids in the sample.

SMILES: N[C@@H](Cc1c[nH]c2ccccc12)C(=O)OCn1cc(F)c(=O)[nH]c1=O [5FUW, (5-fluoro-2,4-dioxo-3,4-dihydropyrimidin-1(2H)-yl)methyl tryptophanate]
- Drug Incorporation [1]: 3.2 mol % and 3.2 ± 0.4 mol %
- Size [2]: 167.4 ± 1.8 nm
- Zeta Potential [2]: 19.6 ± 0.6 mV

SMILES: O=c1[nH]cc(F)c(=O)[nH]1 [5FU, 5-fluorouracil, reference compound]
- Drug Incorporation [1]: 0.7 mol % and 0.7 ± 0.2 mol %
- Size [2]: 173.5 ± 43 nm
- Zeta Potential [2]: 41.7 ± 9.8 mV
- reduction of D50 ratio (BT-474 relative to MCF 10A) by combining at R=819, relative to individual drug [4]: 36 fold
- BT-474 cancer cell growth inhibited ([6]; same 5FU concentrations, combination at R=819, FIG. 3B): 40%
- ROS generation [5]: negligible ROS generation
- IC50 [7]: 50.4 µM
- IC50 [8]: 104 µM

SMILES: N[C@@H](Cc1c[nH]c2ccccc12)C(=O)O [tryptophan]
- toxicity (BT-474 cells; BT-474, W concentrations expected during 5FURW cytotoxicity assays, free or liposome-encapsulated): non-toxic
- toxicity [9]: non-toxic

SMILES: NC(Cc1c[nH]c2ccccc12)C(=O)OC[C@H]1O[C@@H](n2cc(F)c(=O)[nH]c2=O)C(OC(=O)C(N)Cc2c[nH]c3ccccc23)C1OC(=O)C(N)Cc1c[nH]c2ccccc12 (some centres unmarked) [5FURW, 5-fluorouridine-2′, 3′, 5′-tritryptophanate]
- enhancement of liposomal drug encapsulation relative to 5FU [1]: 38 fold
- Drug Incorporation [1]: 26.6 ± 2.4 mol %
- Size [2]: 163.8 ± 17.2 nm
- Zeta Potential [2]: 32.2 ± 6.5 mV
- anticancer activity compared with 5FUR ([6]; free solution and liposomes, FIGS. 5A and 5B): same anticancer activity as unmodified 5FUR
- activity relative to 5FU [7]: 127 fold
- IC50 [7]: 0.396 µM
- activity relative to 5FU [8]: 2.5 fold
- IC50 [8]: 41.2 µM
- encapsulation efficiency [10]: 20%
- loading capacity [10]: 20%

More lines, main results first:

- Drug Incorporation [1]: 1.4 mol % and 1.4 ± 0.5 mol %
- Size [2]: 161.8 ± 10.8 nm
- Zeta Potential [2]: 41.2 ± 1.8 mV
SMILES: NCC(=O)OCn1cc(F)c(=O)[nH]c1=O [5FUG, 1-[(aminomethyl)-ester]methylene-5-fluorouracil]

- IC50 (BT-474 cells; BT-474, 72 hrs, fit to ME model, read-out: D50 (DOX-equivalent concentration inhibiting 50% cell growth)): 300 nM
SMILES: COc1cccc2c1C(=O)c1c(O)c3c(c(O)c1C2=O)C[C@@](O)(C(=O)CO)C[C@@H]3O[C@H]1C[C@H](N)[C@H](O)[C@H](C)O1 [DOX, doxorubicin]
- liposomal encapsulation of DOX [3]: 14-24 mol %
- reduction of D50 ratio (BT-474 relative to MCF 10A) by combining at R=819, relative to individual drug [4]: 5 fold
- ROS generation [5]: Little ROS generation

- enhancement of liposomal drug encapsulation relative to 5FU [1]: ~5 fold
- Drug Incorporation [1]: 3.7 mol % and 3.7 ± 0.2 mol %
- Size [2]: 177.4 ± 2.8 nm
- Zeta Potential [2]: 37.9 ± 1.0 mV
SMILES: O=c1[nH]c(=O)n([C@@H]2O[C@H](CO)[C@@H](O)[C@H]2O)cc1F [5FUR, 5-fluorouridine, reference compound]
